According to patent US20090181986A1, “SUBSTITUTED HETEROCYCLIC COMPOUNDS” (priority 2007, published 2009):

Biological target: hERG potassium channel (Homo sapiens, UniProt Q12809)
Assay: hERG screening assay (PatchXpress patch clamp, CHO cells)
Method: Compounds were screened to test their activity in blocking the hERG potassium channel. The hERG channel is heterologously expressed in a CHO (Chinese Hamster Ovary) cell line. Cells are maintained with standard tissue culture procedures and stable channel expression is maintained with 500 μg/ml G418 in the culture medium. Cells are harvested for testing on the PatchXpress automated patch clamp with Acctumax (Innovative Cell Technologies, San Diego, Calif.) to isolate single cells.
The following solutions are used for electrophysiological recordings. The external solution contains: 2 mM CaCl2; 2 mM MgCl2; 4 mM KCl; 150 mM NaCl; 10 mM Glucose; 10 mM HEPES (pH 7.4 with 1M NaOH, osmolarity).
hERG channels are activated when the voltage is stepped to +20 mV from the −80 mV holding potential (see FIG. 3). During a 5 second step at +20 mV, the channels activate and then largely inactivate, so the currents are relatively small. Upon returning to −50 mV from +20 mV, hERG currents transiently become much larger as inactivation is rapidly removed and then the channel closes. The first step to −50 mV for 300 ms is used as a baseline for measuring the peak amplitude during the step to −50 mV after channel activation. The peak current at −50 mV is measured both under control conditions and after addition of compound.
All compounds are prepared as 10 mM DMSO stocks in glass vials. Stock solutions are mixed by vigorous vortexing and sonication for about 2 minutes at room temperature. For testing, compounds are diluted in glass vials using an intermediate dilution step in pure DMSO and then further diluted to working concentrations in external solution. Dilutions are prepared no longer than 20 minutes before use.
After achieving the whole-cell configuration, cells are monitored for 90 seconds to assess stability and washed with external solution for 66 seconds. The voltage protocol described above is then applied to the cells every 12 seconds and throughout the whole procedure. Only cells with stable recording parameters and meeting specified health criteria are allowed to enter the compound addition procedure.
External solution containing 0.1% DMSO (vehicle) is applied to the cells first to establish the control peak current amplitude. After allowing the current to stabilize for 3 to 5 minutes, 1 μM and then 10 μM test compounds are applied. Each compound concentration is added 4 times and cells are kept in test solution until the effect of the compound reaches steady state or for a maximum of 12 minutes. […] Washout in the external solution compartment is performed until the recovery of the current reaches steady state. Data are analyzed using DataXpress, Clampfit (Molecular Devices, Inc., Sunnyvale) and Origin 7 (Originlab Corp.)

Sequence of hERG potassium channel (Q12809 whole entry): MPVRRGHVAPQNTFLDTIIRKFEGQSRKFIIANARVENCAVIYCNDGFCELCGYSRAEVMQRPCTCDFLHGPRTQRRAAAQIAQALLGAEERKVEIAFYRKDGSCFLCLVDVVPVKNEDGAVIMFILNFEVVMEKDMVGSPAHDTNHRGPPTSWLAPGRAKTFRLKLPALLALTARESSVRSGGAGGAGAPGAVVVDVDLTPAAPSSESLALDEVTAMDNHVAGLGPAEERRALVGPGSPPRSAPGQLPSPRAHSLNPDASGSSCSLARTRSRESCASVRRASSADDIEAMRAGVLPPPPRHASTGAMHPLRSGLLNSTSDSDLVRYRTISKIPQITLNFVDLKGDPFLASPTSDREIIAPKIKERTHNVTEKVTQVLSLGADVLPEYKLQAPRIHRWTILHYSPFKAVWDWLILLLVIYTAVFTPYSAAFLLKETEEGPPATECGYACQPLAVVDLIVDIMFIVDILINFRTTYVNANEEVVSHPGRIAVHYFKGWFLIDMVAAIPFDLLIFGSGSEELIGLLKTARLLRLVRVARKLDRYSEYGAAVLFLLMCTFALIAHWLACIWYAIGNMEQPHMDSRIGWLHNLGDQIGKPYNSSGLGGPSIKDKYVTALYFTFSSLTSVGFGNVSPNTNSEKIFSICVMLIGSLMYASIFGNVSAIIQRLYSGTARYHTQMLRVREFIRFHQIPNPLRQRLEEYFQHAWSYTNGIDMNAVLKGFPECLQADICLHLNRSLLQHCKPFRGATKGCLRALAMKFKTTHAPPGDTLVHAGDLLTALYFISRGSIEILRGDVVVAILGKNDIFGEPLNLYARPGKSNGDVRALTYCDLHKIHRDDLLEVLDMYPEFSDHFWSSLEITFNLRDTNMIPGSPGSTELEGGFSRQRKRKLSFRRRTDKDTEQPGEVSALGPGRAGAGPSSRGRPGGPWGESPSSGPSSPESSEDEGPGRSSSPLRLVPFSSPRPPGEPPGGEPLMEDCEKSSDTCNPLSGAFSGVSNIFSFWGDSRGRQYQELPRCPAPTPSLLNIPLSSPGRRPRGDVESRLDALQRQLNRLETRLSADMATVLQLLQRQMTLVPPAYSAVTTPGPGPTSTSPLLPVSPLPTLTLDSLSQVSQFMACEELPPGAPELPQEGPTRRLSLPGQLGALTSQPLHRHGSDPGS

SMILES	hERG Patch Clamp hERG % blk (1 μM test cmpd)	hERG Patch Clamp hERG % blk (10 μM test cmpd)
CC1=C(C(=O)OCc2ccccc2)C(c2ccccc2N2CCN(C)CC2)n2nnnc2N1 (stereo not shown) [PT-340, benzyl 5-methyl-7-(2-(4-methylpiperazin-1-yl)phenyl)-4,7-dihydrotetrazolo[1,5-a]pyrimidine-6-carboxylate]	57%	93.5%
CC1=C(C(=O)OCc2ccccc2)C(c2ccccc2N2CCCCC2)n2nnnc2N1 (stereo not shown) [PT-342, benzyl 5-methyl-7-(2-(piperidin-1-yl)phenyl)-4,7-dihydrotetrazolo[1,5-a]pyrimidine-6-carboxylate]	10%	47.5%
CC1=C(C(=O)OCc2ccccc2)C(c2ccc3ccccc3c2)C2=C(CCCC2=O)N1 (stereo not shown) [PT-320, benzyl 2-methyl-4-(naphthalen-2-yl)-5-oxo-1,4,5,6,7,8-hexahydroquinoline-3-carboxylate]	10%	10%
CC1=C(C(=O)OCc2ccccc2)C(c2ccc3ccccc3c2)c2c(C)n[nH]c2N1 (stereo not shown) [PT-325, benzyl 3,6-dimethyl-4-(naphthalen-2-yl)-4,7-dihydro-1H-pyrazolo[3,4-b]pyridine-5-carboxylate]	10%	36%
CCOC(=O)C1=C(C)Nc2[nH]nc(C)c2C1c1cccc2ccccc12 (stereo not shown) [PT-074, ethyl 3,6-dimethyl-4-(naphthalen-1-yl)-4,7-dihydro-1H-pyrazolo[3,4-b]pyridine-5-carboxylate]	14%	43%
CCOC(=O)C1=C(C)NC2=C(C(=O)CCC2)C1c1cccc2ncccc12 (stereo not shown) [PT-140, ethyl 2-methyl-5-oxo-1,4,5,6,7,8-hexahydro-4,5′-biquinoline-3-carboxylate]	13.5%	34.5%
CCS(=O)(=O)N1CCN(c2cccc(OC)c2C2C(C(=O)OCc3ccccc3)=C(C)Nc3nnnn32)CC1 (stereo not shown) [PT-378, benzyl 7-(2-(4-(ethylsulfonyl)piperazin-1-yl)-6-methoxyphenyl)-5-methyl-4,7-dihydrotetrazolo[1,5-a]pyrimidine-6-carboxylate]	10%	41.5%
CCOC(=O)C1=C(C)NC2=C(C(=O)CCC2)C1c1ccnc2ccccc12 (stereo not shown) [PT-190, ethyl 2-methyl-5-oxo-1,4,5,6,7,8-hexahydro-4,4′-biquinoline-3-carboxylate]	10.5%	32%
CCOC(=O)C1=C(CC)Nc2nnnn2C1c1cccc2ccccc12 (stereo not shown) [PT-010, ethyl 5-ethyl-7-(naphthalen-1-yl)-4,7-dihydrotetrazolo[1,5-a]pyrimidine-6-carboxylate]	12.5%	30%
CC1=C(c2nnc(CCc3ccccc3)o2)C(c2cccc3ccccc23)n2nnnc2N1 (stereo not shown) [PT-252, 2-(5-methyl-7-(naphthalen-1-yl)-4,7-dihydrotetrazolo[1,5-a]pyrimidin-6-yl)-5-phenethyl-1,3,4-oxadiazole]	10.5%	78%
COc1ccc(COC(=O)C2=C(C)Nc3nnnn3C2c2cccc3ccccc23)cc1OC (stereo not shown) [PT-061, 3,4-dimethoxybenzyl 5-methyl-7-(naphthalen-1-yl)-4,7-dihydrotetrazolo[1,5-a]pyrimidine-6-carboxylate]	24%	46.5%
